Measured values reported in the supplement of paper PMC4932681.
Where a name gives a salt, the structure may show the parent alone.

Assays:
Assay in all cases: viability inhibition at highest dose (% inhibition); higher = more growth inhibition
BT-474 Tam1 = conditions: 4-OH-tamoxifen in medium 1 µM; 72 h
Procedure, shortened: (§1)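 CellTiter-Glo viability was the readout, taken on a PHERAstar and normalised to vehicle-only and positive controls. It was measured after breast cancer cell lines and their resistant derivatives spent 72 h at 37 °C in 384-well plates containing library drugs at five concentrations spanning a 10 000-fold range, with 1 μM of the selecting drug in the medium of resistant lines. From logistic dose–response fits in the Breeze pipeline came drug sensitivity score, relative IC50 (curve midpoint) and top-dose inhibition.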

ZR-75-1 Tam1 = conditions: 4-OH-tamoxifen in medium 1 µM; 72 h
Procedure, shortened: as §1

ZR-75-1 Tam2 = conditions: 4-OH-tamoxifen in medium 1 µM; 72 h
Procedure, shortened: as §1

T-47D Tam1 = conditions: 4-OH-tamoxifen in medium 1 µM; 72 h
Procedure, shortened: as §1

T-47D Tam2 = conditions: 4-OH-tamoxifen in medium 1 µM; 72 h
Procedure, shortened: as §1

MCF-7 = conditions: 72 h
Procedure, shortened: as §1

MCF-7 Tam1 = conditions: 4-OH-tamoxifen in medium 1 µM; 72 h
Procedure, shortened: as §1

ZR-75-1 = conditions: 72 h
Procedure, shortened: as §1

T-47D = conditions: 72 h
Procedure, shortened: as §1

BT-474 Tam2 = conditions: 4-OH-tamoxifen in medium 1 µM; 72 h
Procedure, shortened: as §1

BT-474 = conditions: 72 h
Procedure, shortened: as §1

SMILES | viability inhibition at highest dose (BT-474 Tam1) | viability inhibition at highest dose (ZR-75-1 Tam1) | viability inhibition at highest dose (ZR-75-1 Tam2) | viability inhibition at highest dose (T-47D Tam1) | viability inhibition at highest dose (T-47D Tam2) | viability inhibition at highest dose (MCF-7; 4-OH-tamoxifen in medium 0 µM) | viability inhibition at highest dose (MCF-7; 4-OH-tamoxifen in medium 1 µM) | viability inhibition at highest dose (MCF-7 Tam1) | viability inhibition at highest dose (ZR-75-1; 4-OH-tamoxifen in medium 0 µM) | viability inhibition at highest dose (ZR-75-1; 4-OH-tamoxifen in medium 1 µM) | viability inhibition at highest dose (T-47D; 4-OH-tamoxifen in medium 0 µM) | viability inhibition at highest dose (T-47D; 4-OH-tamoxifen in medium 1 µM) | viability inhibition at highest dose (BT-474 Tam2) | viability inhibition at highest dose (BT-474; 4-OH-tamoxifen in medium 0 µM) | viability inhibition at highest dose (BT-474; 4-OH-tamoxifen in medium 1 µM)
CC[C@H](CO)Nc1nc(NCc2ccccc2)c2ncn(C(C)C)c2n1 [Seliciclib (Roscovitine)] (drug 10000 nM) | -2.39 | -5.94 | -4.53 | 24.8 | 23.6 | 29 | 17.2 | 13.8 | -12.8 | -9.91 | -4.76 | -17.1 | 3.77 | -9.62 | -8.52
Cn1cnc2c(F)c(Nc3ccc(Br)cc3Cl)c(C(=O)NOCCO)cc21 [Selumetinib  (AZD6244)] (drug 10000 nM) | 21.1 | 2.2 | 3.53 | 19.9 | 10.8 | 13.7 | 16.6 | 11.7 | -8.87 | -4.69 | -3.23 | -12.3 | -2.62 | -0.443 | 29.7
CO[C@H]1C[C@@H]2CC[C@@H](C)[C@@](O)(O2)C(=O)C(=O)N2CCCC[C@H]2C(=O)O[C@H]([C@H](C)C[C@@H]2CC[C@@H](O)[C@H](OC)C2)CC(=O)[C@H](C)/C=C(\C)[C@@H](O)[C@@H](OC)C(=O)[C@H](C)C[C@H](C)/C=C/C=C/C=C/1C [Sirolimus (Rapamycin)] (drug 1000 nM) | 21.7 | 33.3 | 36.3 | 34.8 | 26.9 | 45.5 | 35.8 | 7.86 | 38.1 | 31 | 28.5 | 13.8 | 24.1 | 17.8 | 13.2
C=CCN(/C=C1/C(=O)O[C@H](COC)[C@@]2(C)C1=C(O)C(=O)C1=C2[C@H](OC(C)=O)C[C@]2(C)C(=O)CC[C@@H]12)CC=C [Sonolisib (PX-866)] (drug 10000 nM) | -5.08 | 15.2 | 13.3 | 9.15 | 9.95 | -6.01 | 11.3 | -2.1 | 7.54 | 18.1 | -6.68 | 0.837 | -8.14 | -6.97 | -17.3
CNC(=O)c1cc(Oc2ccc(NC(=O)Nc3ccc(Cl)c(C(F)(F)F)c3)cc2)ccn1 [Sorafenib] (drug 1000 nM) | 12.1 | -2.44 | -2.71 | -11.3 | 4.98 | 4.04 | 5.41 | -2.56 | -7.83 | 4.52 | -13.3 | -7.58 | -4.18 | -8.19 | -5.87
CN1CCN(c2nc(C3=C(c4c[nH]c5ccccc45)C(=O)NC3=O)c3ccccc3n2)CC1 [Sotrastaurin] (drug 10000 nM) | 65.2 | 9.64 | 7.03 | 8.91 | 6.92 | 21.3 | 10 | 8.16 | 6.75 | 14.4 | -8.99 | 1.91 | 25.2 | 9.38 | 48.9
CC(C)n1cnc2c(NCCc3ccc(O)cc3)nc(-c3csc4ccccc34)nc21 [StemRegenin 1] (drug 10000 nM) | 95.2 | 19.8 | 24.2 | 41.9 | 54.1 | 51.4 | 65.3 | 18.6 | 8.1 | 26.6 | 35.4 | 50.4 | 89 | 25.1 | 96.4
CN(N=O)C(=O)N[C@@H](C=O)[C@@H](O)[C@H](O)[C@H](O)CO [Streptozocin] (drug 10000 nM) | -7.72 | 1.17 | -12.2 | -3.33 | 9.65 | -9.93 | -7.59 | -3.41 | -9.82 | 2.7 | -10.8 | -3.95 | -7.21 | -7.13 | 3.07
Cn1c(=O)c(F)c(Nc2ccc(I)cc2F)c2c(=O)n(C[C@@H](O)CO)cnc21 [TAK-733] (drug 1000 nM) | 7.81 | 0.97 | -5.15 | 25.4 | 16.5 | 16.8 | 22.9 | 13.8 | -7.07 | -1.35 | -7.47 | -14.5 | 14.3 | 3.01 | 18.7
CCS(=O)(=O)c1cccc(-c2cc(C(=O)NC3CCN(C)CC3)c(C)c3[nH]c4ncc(C)cc4c23)c1 [TAK-901] (drug 1000 nM) | 30.7 | -9.15 | -10.7 | 66.5 | 34.6 | 16.5 | 24.8 | 9.8 | -12.6 | -15.9 | 40.7 | 18.2 | 25.1 | -6.02 | 30.4
Cc1cc(C(C)Nc2ccccc2)c2nc(N3CCOCC3)cc(=O)n2c1 (stereo not given) [TGX-221] (drug 10000 nM) | 29 | 49 | 51.8 | 12.4 | 15.9 | 21.3 | 25.4 | 9.33 | 52 | 45.3 | 8.41 | 24.1 | 42.5 | 9.95 | 25.3
CC(=O)Nc1ccc(C(=O)Nc2ccccc2N)cc1 [Tacedinaline (CI-994)] (drug 1000 nM) | -4.04 | -0.987 | 6.17 | 6.74 | 15.3 | -10.9 | -11.9 | 0.399 | -0.612 | 5.35 | 0.774 | 11.3 | -4.77 | 1.78 | -3.82
C=CC[C@@H]1/C=C(\C)C[C@H](C)C[C@H](OC)[C@H]2O[C@@](O)(C(=O)C(=O)N3CCCC[C@H]3C(=O)O[C@H](/C(C)=C/[C@@H]3CC[C@@H](O)[C@H](OC)C3)[C@H](C)[C@@H](O)CC1=O)[C@H](C)C[C@@H]2OC [Tacrolimus (FK 506)] (drug 10000 nM) | 46.6 | 15.5 | 11.5 | 27.2 | 23.9 | 25.3 | 37.4 | 18.8 | -3.64 | 16 | 5.71 | 3.68 | 35 | 8.63 | 39.4
COc1cc(Nc2ncc(F)c(Nc3ccc4c(n3)NC(=O)C(C)(C)O4)n2)cc(OC)c1OC [Tamatinib (R406)] (drug 10000 nM) | -6.1 | 0.732 | -2.25 | 14.3 | 9.45 | -1.78 | 4.31 | -9.69 | -7.27 | -4.27 | -10 | -10.3 | -9.51 | -9.68 | -22.1
CC/C(=C(\c1ccccc1)c1ccc(OCCN(C)C)cc1)c1ccccc1 [Tamoxifen citrate] (drug 10000 nM) | 95.3 | 17.8 | 26.3 | 15.1 | 50 | 10.6 | 78.6 | 28.6 | 9.17 | 38.8 | 4.58 | 10.2 | 93.8 | 35.7 | 91.4
COc1cc2c(N3CCN(C(=O)Nc4ccc(OC(C)C)cc4)CC3)ncnc2cc1OCCCN1CCCCC1 [Tandutinib] (drug 1000 nM) | -0.467 | 1.06 | -7.47 | -4.68 | 5.77 | -5.26 | -13.7 | -14.2 | -10 | -3.58 | -12.3 | -11.9 | -13.2 | -11.4 | -9.77
C=CCNC1=C2C[C@@H](C)C[C@H](OC)[C@H](O)[C@@H](C)/C=C(\C)[C@H](OC(N)=O)[C@@H](OC)/C=C\C=C(/C)C(=O)NC(=CC1=O)C2=O [Tanespimycin  (17-AAG)] (drug 10000 nM) | 74.9 | 45.8 | 48.8 | 43.6 | 43.5 | 70 | 51.1 | 35.7 | 31 | 45.4 | 55.6 | 43.3 | 74.3 | 52.1 | 81.8
Cn1nnc2c(C(N)=O)ncn2c1=O [Temozolomide] (drug 10000 nM) | 19.9 | 6.09 | 0.839 | 1.44 | -13 | -13.8 | -0.417 | 1.07 | 11.9 | -5.2 | 0.803 | 1.13 | -6.27 | -5.95 | 22.9
CO[C@H]1C[C@@H]2CC[C@@H](C)[C@@](O)(O2)C(=O)C(=O)N2CCCC[C@H]2C(=O)O[C@H]([C@H](C)C[C@@H]2CC[C@@H](OC(=O)C(C)(CO)CO)[C@H](OC)C2)CC(=O)[C@H](C)/C=C(\C)[C@@H](O)[C@@H](OC)C(=O)[C@H](C)C[C@H](C)/C=C/C=C/C=C/1C [Temsirolimus] (drug 100 nM) | 20.6 | 30.5 | 36.2 | 31.8 | 24 | 40.1 | 35.9 | 10.6 | 33.7 | 28.7 | 26.7 | 13.2 | 14.5 | 8.72 | 3.21
COc1cc([C@@H]2c3cc4c(cc3[C@@H](O[C@@H]3O[C@@H]5CO[C@@H](c6cccs6)O[C@H]5[C@H](O)[C@H]3O)[C@H]3COC(=O)[C@H]23)OCO4)cc(OC)c1O [Teniposide] (drug 10000 nM) | 62.6 | 37 | 42.4 | 78.3 | 46.3 | 55.1 | 28 | 18 | 43.9 | 35.7 | 54.1 | 36.5 | 13.2 | 54.2 | 87.3
O=C1CCC(N2C(=O)c3ccccc3C2=O)C(=O)N1 (stereo not given) [Thalidomide] (drug 10000 nM) | 2.81 | 6.53 | -1.28 | 0.973 | 4.15 | 1.74 | 5.08 | 4.57 | 5.91 | 12 | 0.793 | 10.3 | 1.4 | 2.41 | 13.6
S=P(N1CC1)(N1CC1)N1CC1 [Thio-TEPA] (drug 100000 nM) | 11.3 | 11.1 | 4.16 | 3.55 | -1.13 | -13.2 | 9.81 | -0.761 | 4.61 | -3.56 | 2.16 | -2.96 | 9.92 | -3.59 | -5.3
Nc1nc2[nH]cnc2c(=S)[nH]1 [Thioguanine] (drug 10000 nM) | 28.5 | 37.8 | 32.6 | 50.6 | 41.7 | 55.7 | 46.2 | 28.6 | 43.6 | 32.5 | 36.5 | 23.8 | 24 | 11.1 | 20.1
Cn1cncc1[C@@](N)(c1ccc(Cl)cc1)c1ccc2c(c1)c(-c1cccc(Cl)c1)cc(=O)n2C [Tipifarnib  (Zarnestra)] (drug 10000 nM) | 85.4 | 57.6 | 57.7 | 55.8 | 44.6 | 64.4 | 77.7 | 42 | 51 | 50.5 | 28.4 | 14.2 | 78.5 | 42.6 | 77.3
O=C1NC(=O)[C@@H](c2cn3c4c(cccc24)CCC3)[C@@H]1c1c[nH]c2ccccc12 [Tivatinib (ARQ 197)] (drug 1000 nM) | 16.1 | 5.46 | 8.59 | 26.7 | 27.8 | 27.5 | 18.4 | -6.15 | 19.6 | 10.3 | 43.2 | 7.95 | 10.4 | 34.3 | 43.9
